The target in one experiment is T1, FLT3-ITD (Homo sapiens, UniProt P36888, ITD).
T1 sequence (P36888 27-993): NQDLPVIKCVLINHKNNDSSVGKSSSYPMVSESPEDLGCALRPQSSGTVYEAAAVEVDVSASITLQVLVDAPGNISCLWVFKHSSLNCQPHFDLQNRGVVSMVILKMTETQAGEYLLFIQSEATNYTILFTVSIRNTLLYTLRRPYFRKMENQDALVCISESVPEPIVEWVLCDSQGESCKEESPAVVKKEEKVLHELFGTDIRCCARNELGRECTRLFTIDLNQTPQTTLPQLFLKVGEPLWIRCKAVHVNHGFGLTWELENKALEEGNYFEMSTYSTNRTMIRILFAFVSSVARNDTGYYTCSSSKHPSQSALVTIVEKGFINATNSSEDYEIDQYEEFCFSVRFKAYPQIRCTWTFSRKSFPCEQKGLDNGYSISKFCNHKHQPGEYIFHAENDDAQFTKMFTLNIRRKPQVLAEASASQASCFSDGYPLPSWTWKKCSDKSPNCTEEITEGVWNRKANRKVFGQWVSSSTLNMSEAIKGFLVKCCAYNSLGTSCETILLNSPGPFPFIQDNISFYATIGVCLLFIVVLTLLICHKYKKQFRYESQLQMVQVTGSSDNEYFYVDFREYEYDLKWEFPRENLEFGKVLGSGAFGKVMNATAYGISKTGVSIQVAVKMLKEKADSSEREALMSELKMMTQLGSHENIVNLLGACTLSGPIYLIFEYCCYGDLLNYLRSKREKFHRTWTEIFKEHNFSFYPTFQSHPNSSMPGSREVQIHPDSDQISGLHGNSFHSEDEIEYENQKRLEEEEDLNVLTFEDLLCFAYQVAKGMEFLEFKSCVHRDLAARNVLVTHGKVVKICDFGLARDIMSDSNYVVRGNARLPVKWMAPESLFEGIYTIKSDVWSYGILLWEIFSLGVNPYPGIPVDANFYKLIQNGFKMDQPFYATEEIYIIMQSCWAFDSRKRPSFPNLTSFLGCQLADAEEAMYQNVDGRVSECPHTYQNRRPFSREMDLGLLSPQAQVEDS
The experiment can be described thus: Recombinant kinase radioassay, FLT3-ITD. Format: biochemical. The settings on record: recombinant kinase, radioassay; at least three independent experiments, range 0.01–100 µM; read-out: IC50 FLT3-ITD. The gist of the method:
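FLT3-ITD kinase, purchased from ProQinase, was tested in a standard radioassay with 100 µM poly (Glu:Tyr; 4:1) substrate, 0.05 µCi [γ-^33P]ATP and test compound in buffer of 60 mM HEPES-NaOH pH 7.5, 3 mM MgCl2, 3 mM MnCl2, 3 µM Na orthovanadate, 1.2 mM DTT and 2.5 µg/50 µL PEG20.000. Phosphorylated substrate was separated on P-81 phosphocellulose and quantified with a FLA-7000 image analyser.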

Experiment [1] deals with caspase 3/7 activity in MV4-11 cells. Nature of the experiment: Caspase-3/7 assay, MV4-11. In kind it is cell-based. The conditions noted are these: 24 h. As to the method: (§1) MV4-11 and K562 cells were kept in a 96-well plate were treated with increasing concentrations of compound 4i and 5b for 24 h. After this period, caspase-3/7 assay buffer (150 mM HEPES pH 7.4, 450 mM NaCl, 150 mM KCl, 30 mM MgCl2, 1.2 mM EGTA, 1.5% Nonidet P40, 0.3% CHAPS, 30% sucrose, 30 mM DTT, and 3 mM PMSF) containing 150 µM peptide substrate Ac-DEVD-AMC (Enzo Life Sciences, Farmingdale, NY, USA) was added, and after 2 h incubation, the fluorescence of AMC was measured using a Fluoroskan Ascent microplate reader (Labsystems) at 346 nm/442 nm (excitation/emission).

Experiment [2] concerns FLT3-ITD signalling in MV4-11 cells. The experiment can be described thus: Immunoblotting of FLT3-ITD-dependent pathway in MV4-11. In kind it is cell-based. The settings on record: 4 h. As to the method: (§2) Protein changes in the treated cells were analysed using immunoblotting. Briefly, cell lysates were separated on SDS-polyacrylamide gels and electroblotted onto nitrocellulose membranes. After blocking, overnight incubation with specific primary antibodies and incubation with peroxidase-conjugated secondary antibodies, the peroxidase activity was detected with Super-Signal West Pico reagents (Thermo Scientific, Waltham, MA, USA) using a CCD camera LAS-4000 (Fujifilm). The following specific antibodies were purchased from Cell Signalling: anti-FLT3 (clone 8F2), anti-phospho-FLT3 Y589/591 (clone 30D4), anti-STAT5 (clone D2O6Y), anti-phospho-STAT5 Y694, anti-ERK1/2, anti-phospho-ERK1/2 T202/Y204, anti-Akt (clone C67E7), anti-phospho-Akt S473 (clone D9E), anti-phospho-Bcr Y177, anti-CrkL (clone 32H4), anti-phospho-CrkL Y207, anti-BTK (clone C82B8), anti-phospho-BTK Y223, anti-PLCγ2, anti-phospho-PLCγ2 Y1217, and anti-PARP-1 (clone 46D11). Anti-α-tubulin (clone DM1A) was purchased from Sigma Aldrich.
(§3) Based on their inhibitory effects on recombinant kinases as well as cytotoxic effects in relevant cell line models, the purine derivatives 4i, 5b and 5j were selected for further experiments to confirm the expected molecular mechanism of action. The candidate compounds were tested to determine changes in signalling pathways downstream of the oncogenic kinases in cells. […]
For orientation: A western blot detects proteins with antibodies after separation by electrophoresis.

Another experiment deals with HL-60. The experiment can be described thus: Cytotoxicity assay (resazurin), HL-60. In kind it is cell-based. The settings on record: Homo sapiens, 72 h, three independent experiments, range 0.1 to 25 µM. As to the method: (§4) Cytotoxicity assays for the purines were quantified using the resazurin method, a dye to measure redox reactions occurring in the mitochondria of live cells. The cells were treated by tested compounds (in triplicate, six different doses) for 72 h.
For orientation: The colour change of resazurin is a common sign of viable cells or microbes.

The next experiment has as its system MV4-11 cells. The experiment can be described thus: Flow cytometry cell cycle, MV4-11. The settings on record: 24 h, sub-micromolar concentrations. Format: cell-based. As to the method:
(§5) Cell cycle effects were measured using flow cytometric determination of DNA content. MV4-11 and K562 cells were treated with tested compounds for 24 h. After the staining with propidium iodide, the DNA content was analysed by flow cytometry using a 488 nm laser (BD FACS Verse with software BD FACSuite^TM, version 1.0.6.). The cell cycle distribution was analysed using ModFit LT (Verity Software House 5.0, Topsham, ME, USA).
A general note: A flow cytometer gives signals particle by particle.

The target of the next experiment is T2, Cdk-2/cyclin E (Homo sapiens, UniProt P24941).
T2 construct: made in house
The experiment can be described thus: Recombinant kinase radioassay, Cdk-2/cyclin E. Format: biochemical. The conditions noted are these: ATP 15 µM, at least three independent experiments, range 0.01–100 µM. The gist of the method: (§6)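 Radiometric kinase assay: 0.05 µCi [γ-33P]ATP in HEPES pH 7.5 buffer with Mg2+/Mn2+, vanadate, DTT. Commercial BTK with 100 µM poly(Glu:Tyr 4:1), 15 µM ATP. In-house Cdk-2/cyclin E with 1 mg/mL histone H1, 15 µM ATP. H3PO4 stop, phosphocellulose capture, phosphorimager read.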

Another experiment has as its system K562. Nature of the experiment: Cytotoxicity assay (resazurin), K562. Format: cell-based. The settings on record: Homo sapiens, 72 h, three independent experiments, range 0.1 to 25 µM. As to the method: as §4
The next experiment concerns the target T3, BTK (Homo sapiens, UniProt Q06187).
T3 construct: purchased ProQinase
The experiment can be described thus: Recombinant kinase radioassay, BTK. In kind it is biochemical. The conditions noted are these: recombinant kinase, radioassay, ATP 15 µM; at least three independent experiments, range 0.01–100 µM; read-out: IC50 BTK. Summed up: as §6

For the next experiment, the target named is Bcr-Abl1 (Homo sapiens, UniProt P00519). Nature of the experiment: Recombinant kinase radioassay, Abl. Format: biochemical. The conditions noted are these: ATP 1 µM, at least three independent experiments, range 0.01–100 µM.
Sequence of Bcr-Abl1 (P00519 27-1130): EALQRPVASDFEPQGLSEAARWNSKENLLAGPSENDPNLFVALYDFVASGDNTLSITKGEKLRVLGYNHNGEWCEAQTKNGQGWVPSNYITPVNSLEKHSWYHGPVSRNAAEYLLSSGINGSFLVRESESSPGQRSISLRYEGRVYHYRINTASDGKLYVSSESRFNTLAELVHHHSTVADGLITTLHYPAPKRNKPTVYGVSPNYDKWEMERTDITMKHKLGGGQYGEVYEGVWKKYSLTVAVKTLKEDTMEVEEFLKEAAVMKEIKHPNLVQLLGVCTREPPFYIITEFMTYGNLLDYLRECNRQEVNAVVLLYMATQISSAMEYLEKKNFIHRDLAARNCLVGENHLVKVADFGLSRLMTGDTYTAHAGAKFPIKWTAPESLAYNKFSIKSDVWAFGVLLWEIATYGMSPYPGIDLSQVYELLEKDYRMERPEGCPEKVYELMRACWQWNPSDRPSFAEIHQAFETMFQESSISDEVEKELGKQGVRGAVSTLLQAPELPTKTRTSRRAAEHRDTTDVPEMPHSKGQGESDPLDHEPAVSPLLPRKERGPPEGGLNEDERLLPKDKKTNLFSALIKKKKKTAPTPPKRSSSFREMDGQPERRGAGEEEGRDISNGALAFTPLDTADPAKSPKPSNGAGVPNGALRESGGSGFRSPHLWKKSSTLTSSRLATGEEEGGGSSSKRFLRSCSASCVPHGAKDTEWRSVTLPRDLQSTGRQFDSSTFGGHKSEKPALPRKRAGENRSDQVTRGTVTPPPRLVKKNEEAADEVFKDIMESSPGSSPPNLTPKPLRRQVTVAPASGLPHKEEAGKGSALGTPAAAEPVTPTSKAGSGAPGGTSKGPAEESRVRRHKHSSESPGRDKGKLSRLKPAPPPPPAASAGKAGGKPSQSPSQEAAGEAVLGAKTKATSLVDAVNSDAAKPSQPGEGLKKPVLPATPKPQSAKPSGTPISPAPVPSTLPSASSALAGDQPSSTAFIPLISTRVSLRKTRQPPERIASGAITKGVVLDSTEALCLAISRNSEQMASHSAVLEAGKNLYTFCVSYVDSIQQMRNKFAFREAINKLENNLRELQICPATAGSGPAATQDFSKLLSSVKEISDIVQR
Another experiment concerns MV4-11. The experiment can be described thus: Cytotoxicity assay (resazurin), MV4-11. The settings on record: Homo sapiens, 72 h, three independent experiments, range 0.1 to 25 µM. Format: cell-based. As to the method: as §4
Another experiment has as its system Ramos. The experiment can be described thus: Cytotoxicity assay (resazurin), Ramos. In kind it is cell-based. The settings on record: Homo sapiens, 72 h, three independent experiments, range 0.1 to 25 µM. As to the method: as §4
Experiment [3] deals with PARP-1 cleavage in MV4-11. The experiment can be described thus: Immunoblotting of PARP-1 cleavage, MV4-11. Format: cell-based. The conditions noted are these: MV4-11 cells, 4 h. As to the method:
as §2, with “Anti-α-tubulin (clone DM1A) was purchased from Sigma Aldrich.” left out
(§7) Finally, we analysed the mechanism of cell death induced by the prepared compounds 4i and 5b. Proteolytic cleavage of PARP-1—a well-established protein involved in apoptosis—was analysed in K562 and MV4-11 treated with respective compounds for 4 h. […] The PARP-1 fragment was not detected in MV4-11 cells treated with 5b because the compound was not effective in inducing apoptosis after 4 h of treatment (Figure 14B).

A further experiment has as its system CEM. Nature of the experiment: Cytotoxicity assay (resazurin), CEM. The conditions noted are these: Homo sapiens, CCRF-CEM, 72 h, three independent experiments, range 0.1 to 25 µM. Format: cell-based. As to the method: as §4
For the next experiment, the system named is PARP-1 cleavage in K562. The experiment can be described thus: Immunoblotting of PARP-1 cleavage, K562. In kind it is cell-based. The conditions noted are these: K562 cells, 4 h. As to the method:
as §2, with “Anti-α-tubulin (clone DM1A) was purchased from Sigma Aldrich.” left out
as §7

Another experiment relates to K562 cells. The experiment can be described thus: Flow cytometry cell cycle, K562. Format: cell-based. The settings on record: 24 h, sub-micromolar concentrations. As to the method: as §5
In experiment [4] the test system is caspase 3/7 activity in K562 cells. Nature of the experiment: Caspase-3/7 assay, K562. In kind it is cell-based. The conditions noted are these: 24 h, at 1 µM. As to the method: as §1
Experiment [5] concerns Bcr-Abl signalling in K562 cells. The experiment can be described thus: Immunoblotting of Bcr-Abl downstream signalling in K562. Format: cell-based. The conditions noted are these: 4 h. As to the method: as §2, §3

A value given as a limit tells only on which side of the number the result lay.

T3 sequence (Q06187 whole entry): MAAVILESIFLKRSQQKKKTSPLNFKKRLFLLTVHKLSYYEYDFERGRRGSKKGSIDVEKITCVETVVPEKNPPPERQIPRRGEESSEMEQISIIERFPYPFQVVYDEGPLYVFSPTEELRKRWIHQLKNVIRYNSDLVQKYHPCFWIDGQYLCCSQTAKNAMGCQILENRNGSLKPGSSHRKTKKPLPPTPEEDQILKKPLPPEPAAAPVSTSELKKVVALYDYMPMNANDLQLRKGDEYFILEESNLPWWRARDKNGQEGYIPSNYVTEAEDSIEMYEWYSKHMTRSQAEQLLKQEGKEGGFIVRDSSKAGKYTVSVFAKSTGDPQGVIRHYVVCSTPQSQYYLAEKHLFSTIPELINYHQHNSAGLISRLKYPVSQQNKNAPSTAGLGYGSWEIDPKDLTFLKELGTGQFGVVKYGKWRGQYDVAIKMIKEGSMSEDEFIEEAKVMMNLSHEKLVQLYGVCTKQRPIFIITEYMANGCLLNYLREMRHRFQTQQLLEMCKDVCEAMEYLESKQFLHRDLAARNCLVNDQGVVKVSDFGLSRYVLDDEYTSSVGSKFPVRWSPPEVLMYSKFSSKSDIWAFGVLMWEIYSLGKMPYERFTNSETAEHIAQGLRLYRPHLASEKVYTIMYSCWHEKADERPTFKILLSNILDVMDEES

For orientation: IC50 means the midpoint of a concentration-inhibition curve. As usually defined, the GI50 is the concentration that inhibits growth by half. A lower GI50 goes with greater sensitivity of the cells. As to `CC(C)CCn1cnc2c(Nc3cccc(F)c3)nc(Nc3ccc(N4CCN(C)CC4)cc3)nc21` [Compound 5b, N^6-(3-Fluorophenyl)-9-isopentyl-N^2-(4-(4-methylpiperazin-1-yl)phenyl)-9H-purine-2,6-diamine], the IC50 on FLT3-ITD is 380 nM; on Cdk-2/cyclin E, 21100 ± 1910 nM; at BTK, 3780 ± 860 nM; at Bcr-Abl1 it was over 50000 nM. The “Caspase 3/7 induction” value in [1] was “a higher concentration of 5b was required for caspase induction”. For the same molecule, in experiment [2], the “Phosphorylation of STAT5” value is “inhibited”. Moreover, the “Autophosphorylation of the oncogenic FLT3-ITD” value in experiment [2] (increasing concentrations) is given as “clear suppression”. Besides, the concentration for 50% growth inhibition (GI50) was 2040 ± 580 nM with HL-60; 18600 ± 3730 nM in the experiment on K562; 2890 ± 950 nM in the experiment on MV4-11; 18700 ± 3100 nM with Ramos; over 25000 nM in the experiment with CEM. Also, in the experiment on MV4-11 cells, the Cell cycle effect result is on record as “effectively induced G1 arrest”. In addition, in experiment [3], the PARP-1 fragment result is given as “not detected”.

Regarding `CN1CCN(c2ccc(Nc3nc(Nc4ccc(C#N)cc4)c4ncn(CC5CC5)c4n3)cc2)CC1` [Compound 4i, 4-((9-(Cyclopropylmethyl)-2-((4-(4-methylpiperazin-1-yl)phenyl)amino)-9H-purin-6-yl)amino)benzonitrile], the IC50 is 370 nM on FLT3-ITD, 10800 ± 1600 nM at Cdk-2/cyclin E, 910 ± 190 nM on BTK and 100 ± 30 nM on Bcr-Abl1. Moreover, the concentration for 50% growth inhibition (GI50) in the experiment on HL-60 came out at 3170 ± 570 nM; with K562 it was 1030 ± 210 nM; with MV4-11, 890 ± 70 nM; with Ramos, 1490 ± 50 nM; in the experiment on CEM, 1850 ± 100 nM. Besides, the “89 kDa fragment of PARP-1” value with PARP-1 cleavage in K562 is “increased levels”. Besides, the Cell cycle effect result in the experiment on K562 cells is on record as “effectively induced G1 arrest”. Also, the “Relative caspase 3/7 activity” value in experiment [4] is “nearly five-fold increase”. Further, the “Concentration from which autophosphorylation of Bcr (pBcr) is inhibited” value in experiment [5] is at least 0.08 µM. For the same molecule, the “Level of phosphorylated STAT5 (pSTAT5) and CrkL (pCrkL)” value in experiment [5] is “dose-dependently decreased”.
